{"source": "patent US10583181B2", "about": "“Recombinant multiple domain fusion protein mitogens and use thereof for inducing enhancement or repression of antigen-specific immunity” (priority 2008, dated 2020)", "key": {"T-bet": {"test_system": "T-bet", "experiment": "T-bet RNA in CD4+ T cells by RT-PCR", "type": "cell-based, human", "details": "5 days", "protocol": "(§1) Using specific primers, PRDI-BF1 RNA was amplified by RT-PCR (20 cycles) from cytoplasmic RNA derived from PBL cells stimulated for three days with fusion proteins (0.1 μM). T-bet and GATA3 RNAs were amplified by RT-PCR (25 cycles) from cytoplasmic RNA derived from CD4^+ T cells stimulated for five days with fusion proteins (0.1 μM). Each sample was subjected to electrophoresis on agarose gels and stained with ethidium bromide (EtBr) to detect amplified fragments: 594 bp for PRDI-BF1, 206 bp for T-bet and 131 bp for GATA3.\nCD4^+ T cells were stimulated by B7-2-FasL-IgFc (0.1 μM) for 5 days before total RNA was harvested and tested for increased mRNA expression of T-bet (for Th1 differentiation) and GATA-3 (for Th2 differentiation) by RT-PCR. Each sample was electrophoresed on agarose gels and stained with ethidium bromide (EtBr) to detect amplified fragments: 206 bp for T-bet and 131 bp for GATA3. The data represent the three experiments with similar results."}, "[1]": {"test_system": "human Fas-apoptosis-sensitive Jurkat T cell line or human peripheral blood T lymphocytes", "experiment": "Cell death in Jurkat T cell line or peripheral blood T lymphocytes", "type": "cell-based", "text": "According to understanding, the strong cell activation by simultaneous stimulation of a co-stimulation receptor and another death receptor is not a predictable outcome. […] A possible explanation for the strong activation in CD28^+/Fas^+ T cells is that B7-2 and FasL must be located in the close proximity to each other, as is the case when linked together in the B7-2-FasL-IgFc fusion protein."}, "Influenza hemaglutinin": {"test_system": "Influenza hemaglutinin", "set-up": "species or system Balb/c mice", "details": "mouse; for HA-specific IgG, secondary response following boost / HA-specific IgG, primary response: in vivo; for HA-specific IgG, primary response: ip"}, "[2]": {"test_system": "Total T cells, CD4+ T cells and CD8+ T cells", "experiment": "Proliferation of purified human T cells (total, CD4+, CD8+)", "type": "cell-based", "protocol": "(§2) Human lymphocytes were stimulated for 3 days in 96 U-bottom well plates with various concentrations of recombinant fusion proteins. In some experiments, a NF-κB inhibitor (SN50, 18 μM, Calbiochem, San Diego, Calif., USA) and a MEK1/2 inhibitor (PD98059, 1 μg/ml, Calbiochem) were added to the cell culture media. Cell proliferation was assessed by thymidine uptake assays. Cultured cells were pulsed with 1 μCi/well of [^3H]thymidine (ICN, Costa Mesa, Calif., USA) for 18 hours and then harvested onto glass fiber filters. [^3H]thymidine incorporation was measured by standard liquid scintillation counting techniques. In some experiments, HA antigen-specific cell proliferation response was assayed by the MTT assay [van de Loosdrecht et al., J. Immunol. Methods, 174:311(1994)], which is a direct measure of cell viability.\nPBMCs derived from normal healthy human adults were separated from whole blood using Ficoll-Paque Plus. Peripheral blood lymphocyte (PBL)-T cells, PBL-B cells, CD4^+ T cells, CD8^+ T cells were purified by negative selection using RosetteSep (StemCell Tec. Vancouver, BC, Canada), while non-T cells were purified by negative selection using pan-T magnet beads (M-450, Dynal, Lake Success, N.Y., USA). The purity of human PBL-T cells was greater than 97% as determined by CD3 staining and flow cytometry. […] CD4^+ and CD8^+ T cells were purified to greater than 90% positive for CD4 and CD8, respectively as determined by flow cytometry studies.\nTotal T cells, CD4^+ T cells and CD8^+ T cells were stimulated with either B7-2-FasL-IgFc or control fusion proteins. CD4^+ T cells and CD8^+ T cells were stimulated with various fusion proteins. After 72 hours in culture, cell proliferation was assessed. Data indicates the average and standard deviation of quadruplicate samples. The data represent the three experiments with similar results."}, "[3]": {"test_system": "Influenza hemaglutinin-specific T cell response", "set-up": "species or system Balb/c mice", "details": "mouse, in vivo, ip"}, "IL-2": {"test_system": "IL-2", "experiment": "IL-2 production of T cells (ELISA)", "type": "cell-based, human", "details": "1 μg/ml, 3 days", "protocol": "(§3) The relative concentrations of TNP-specific human IgG and IgM in supernatants from 4 day cultures were determined by ELISA assays. TNP22-BSA (1 μg/ml) was used to coat assay plates, and alkaline phosphatase-conjugated anti-human IgG (Fab-specific) (Sigma) or anti-human IgM (μ-chain-specific) (Sigma) were used as the detection reagents. The concentration of IL-2 in fusion protein-stimulated culture supernatants was measured by human-IL-2-specific ELISA kit (Roche, Laval, QC, Canada). The lower limit of detection was 30 pg/ml in IL-2 assay.\nT cells were stimulated by B7-2-FasL-IgFc (1 μg/ml) or phytohemagglutinin (5 μg/ml) for 3 days. The concentration of IL-2 in culture supernatants was measured by ELISA assays. The lower limit of detection was 30 pg/ml in IL-2 assay. The data represent the three experiments with similar results."}, "[4]": {"test_system": "PBL-T cells and PBL-non-T cells", "experiment": "Proliferation of PBL-T cells versus PBL-non-T cells", "type": "cell-based, human", "details": "0.1 μM, 3 days", "protocol": "as §2\nPBL-T cells and PBL-non-T cells were stimulated with CD40L-FasL-IgFc (0.1 μM) for three days prior to proliferation assay. […] The data represent the three experiments with similar results. […]\nPBMCs derived from normal healthy human adults were separated from whole blood using Ficoll-Paque Plus. […] The purity of human PBL-T cells was greater than 97% as determined by CD3 staining and flow cytometry. […] CD4^+ and CD8^+ T cells were purified to greater than 90% positive for CD4 and CD8, respectively as determined by flow cytometry studies."}, "OVA": {"test_system": "OVA", "experiment": "Anti-OVA IgG response in immunized mice (ELISA titer)", "type": "in vivo, Balb/c mice", "protocol": "Balb/c mice (4-6 wks of age) were primed intra peritoneal (i.p.) route with 0.1 ml of protein antigens, OVA albumin (Sigma) or GSK […] (GlaxoSmithKline, Mississauga, Ontario, Canada), in the presence and absence of fusion protein or cDNA harboring plasmid. To determine the antigen-specific IgG titer in the serum of the individual mouse, ELISA were performed using 0.1 μg/ml antigen-coated assay plates (Maxisorp, Nunc 44-2404-21) following the standard procedure.\nBalb/c mice were immunized i.p. with 0.2 μg of OVA and 5 μg of CD40L-FasL-IgFc (indicated as Primed). On Day 14, blood samples were harvested and subsequently mice were injected with 0.2 μg of OVA (indicated as Boosted). Sera from day 14 and day 21 were analysed by ELISA for the IgG activity against OVA. […] Squares indicate mice immunized with OVA alone. Circles indicate mice immunized with both OVA and CD40L-FasL-IgFc. Numbers in squares and circles indicate individual mouse. The […] activity of pre-immune serum from each mouse was equally low at less than 50 in titer."}, "PRDI-BF1": {"test_system": "PRDI-BF1", "experiment": "PRDI-BF1 RNA by RT-PCR", "type": "cell-based, human", "details": "0.1 μM, 3 days", "protocol": "as §1\nPBMCs were stimulated with fusion proteins (0.1 μM) for three days. The total RNA was assayed for the message of PRDI-BF1 by RT-PCR. Each sample was electrophoresed on agarose gels and stained with ethidium bromide (EtBr) to detect amplified fragments. The data represent the results from three experiments with similar results."}, "human PBMCs": {"test_system": "human PBMCs", "experiment": "Proliferation of human PBMC ([3H]thymidine uptake)", "type": "cell-based", "protocol": "as §2\nWe cultured human PBMCs and mouse spleen cells in the presence of CD40L-FasL-IgFc. Whole blood, obtained from a healthy donor, was twice diluted with Na-PBS (pH 7.2) and peripheral blood mononuclear cells (PBMCs) were separated by Ficoll density gradients (Ficoll-Paque Plus, Amarsham Biotech) by centrifugation (Sorvall RT 6000, 1500 rpm for 15 minutes at room temperature). The peripheral blood mononuclear cells were collected from the interphase between the PBS top layer and Ficoll plus bottom layer, washed with PBS and subjected to cell proliferation assays. […]"}, "[5]": {"test_system": "B cell (CD19+) and monocyte (CD14+) fractions", "experiment": "Phenotype of CD40L-FasL-IgFc activated cells", "type": "cell-based, human", "details": "cultures stimulated for 5 days"}, "PBL-B cells": {"test_system": "PBL-B cells", "experiment": "TNP-specific IgG/IgM secretion ELISA", "type": "cell-based, human", "details": "4 days culture, supernatant ELISA", "protocol": "as §3\nWe next assessed the effect on IgG secretion by fusion protein-induced co-clustering of CD40 and Fas in B cells. PBL-B cells were incubated with CD40L-FasL-IgFc for four days and the supernatants were assayed for IgG- and IgM-specific trinitrophenyl (TNP) hapten [Galanaud et al., Cell. Immunol., 106:234 (1987)].\nPBMCs were stimulated with fusion proteins for four days. The relative concentrations of TNP-specific human IgG and IgM in supernatants were determined by ELISA assays. […] The data represent the three experiments with similar results."}, "[6]": {"test_system": "human B lymphoma cells (Raji, Daudi)", "experiment": "Cell death of human B lymphoma cells after treatment", "type": "cell-based", "details": "Raji and Daudi cells"}}, "note": "“Also recorded” adds a separate entry of the source."}
{"substance": "B7-2-FasL-IgFc: fusion protein of human B7-2 extracellular domain, FasL extracellular domain and IgG1 Fc (SEQ ID NO: 17)", "values": [{"measurement": "T-bet transcription factor RNA", "setting": "T-bet; CD4+ T cells, 0.1 μM", "result": "significant increase"}, {"measurement": "differentiation of CD4+ T cells in vitro", "setting": "T-bet; from T-bet/GATA3 RT-PCR", "result": "skewing towards Th1 subsets"}, {"measurement": "induction of cell death", "setting": "[1]", "result": "did not induce cell death"}, {"measurement": "humoral and cellular immune responses in vivo", "setting": "Influenza hemaglutinin", "result": "severe repression of humoral and cellular immune responses"}, {"measurement": "HA-specific IgG, secondary response following boost", "setting": "Influenza hemaglutinin", "result": "far lower"}, {"measurement": "HA-specific IgG, primary response", "setting": "Influenza hemaglutinin", "result": "repressed the antibody response"}, {"measurement": "T cell proliferation (mitogenic response)", "setting": "[2]; 72 hours culture", "result": "strong activation of proliferation; also recorded: strong T cell-specific mitogenic response; also recorded: proliferation of both CD4^+ and CD8^+ T cells increased"}, {"measurement": "magnitude of T cell proliferation compared with phytohemagglutinin (PHA)", "setting": "[2]; 72 hours culture", "result": "comparable to that induced by the well-known T cell mitogen PHA; also recorded: comparable to phytohemagglutinin-induced T cell mitogenesis"}, {"measurement": "dose required by CD8+ T cells to achieve similar levels of proliferation to CD4+ T cells", "setting": "[2]; CD8+ versus CD4+ T cells", "result": "> 20", "unit": "fold"}, {"measurement": "HA-specific CD8+ T cell response", "setting": "[3]", "result": "undetectable"}, {"measurement": "HA-specific response by total T cells", "setting": "[3]", "result": "suppressed the HA-specific response by total T cells"}, {"measurement": "IL-2 secretion by T cells", "setting": "IL-2", "result": "secretion of IL-2"}]}
{"substance": "CD40L-FasL-IgFc: fusion protein of human CD40L extracellular domain, human FasL extracellular domain and human IgG1 Fc (SEQ ID NO: 13)", "values": [{"measurement": "cell subset specificity of activation (T versus non-T/B cells)", "setting": "[4]", "result": "did not activate T lymphocytes but resulted in a strong mitogenic activity against B cells; also recorded: specific for the non-T cell subsets"}, {"measurement": "OVA-specific IgG, primary response", "setting": "OVA; 0.2 μg OVA + 5 μg fusion protein i.p., day 14 sera", "result": "high titers"}, {"measurement": "OVA-specific IgG after boost", "setting": "OVA; boost 0.2 μg OVA on day 14, day 21 sera", "result": "increased markedly"}, {"measurement": "expression of PRDI-BF1 RNA", "setting": "PRDI-BF1", "result": "increased expression"}, {"measurement": "cell activation / mitogenic response (proliferation) of PBMC", "setting": "human PBMCs; 3 days stimulation, 3H-thymidine, active even at 0.1-0.01 μg/ml", "result": "significant cell activation; also recorded: greatly exceeded the mitogenic response induced by the co-stimulation with CD40L-IgFc and FasL-IgFc"}, {"measurement": "mitogenic activity after adsorption with Polymixin B", "setting": "human PBMCs; fusion protein pre-absorbed with Polymixin B-coated beads, 3 days", "result": "did not attenuate the mitogenic activity"}, {"measurement": "HA-specific IgG, secondary response following boost", "setting": "Influenza hemaglutinin", "result": "far greater"}, {"measurement": "HA-specific IgG, primary response", "setting": "Influenza hemaglutinin", "result": "significantly increased the antibody response"}, {"measurement": "increase of B cell (CD19+) fraction", "setting": "[5]", "result": 30, "unit": "%"}, {"measurement": "increase of monocyte (CD14+) fraction", "setting": "[5]", "result": 15, "unit": "%"}, {"measurement": "anti-TNP IgG secretion", "setting": "PBL-B cells", "result": "significantly increased"}, {"measurement": "HA-specific CD8+ T cell response", "setting": "[3]", "result": "only detectable in spleen cells immunized with CD40L-FasL-IgFc"}, {"measurement": "HA-specific response by total T cells", "setting": "[3]", "result": "lowered the HA-specific response by total T cells"}, {"measurement": "cell death of B lymphoma cells", "setting": "[6]", "result": "did not undergo cell death"}]}
